Read-outs that look alike come from different tables or passages of the source.

Experiment [1] has as its target recombinant 17β-HSD13 protein (Homo sapiens (Human), UniProt Q7Z5P4). Briefly: 17β-HSD13 biochemical assay (NAD+/NADH Glo chemiluminescence). Particulars: 17β-HSD13 50 nM, NAD+ 10 mM, β-estradiol 20 μM, 2 hours room temperature. In outline: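 Compounds preincubated 1 h at room temperature with 50 nM enzyme and 10 mM NAD+ (final) in 200 mM Tris pH 7.5, 0.01% Triton X-100, 0.02% BSA. Reaction started with 20 μM β-estradiol and run 2 hours at room temperature; NADH formation detected by NAD+/NADH-Glo chemiluminescence. IC50 from four-parameter logistic fit.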

Experiment [2] addresses HEK293 cells expressing 17β-HSD13 (Homo sapiens (Human), UniProt Q7Z5P4). As to the kind of experiment: 17β-HSD13 cell-based assay (β-estradiol conversion, LC-MS/MS). The procedure: HEK293 cells expressing 17β-HSD13 either stably or transiently were incubated with compounds for 60 min at 37° C. in a humidified incubator. After this first incubation step, β-estradiol was added to each well of the microtiter plate and incubated for 3 h at 37° C. in the humidified incubator. After treatment with β-Estradiol, 50 μL of supernatant was transferred to a 96-V plate containing 100 μL acetonitrile and centrifuged at 3900 rpm for 45 min. Finally, 50 μL of supernatant were taken for LC-MS/MS analysis. The chromatography part was run on a Xbridge 30 mm×2.1 mm column (Waters), at 40 degrees Celsius and a flow rate of 0.8 mL/min for 5 min, while the MS was done on a Q Exactive Orbitrap (Fisher Scientific) in Target SIM mode and negative polarity with a spray voltage of 3.5 kV. EC50 values were determined with GraphPad Prism®, where log-transformed concentration values and the inhibition data were fitted to a four-parameter logistic equation. Y=Bottom+(Top−Bottom)/(1+10^((Log EC50−X)*Hill Slope)). The original, % control, or % inhibition data are represented by Y along with their minimal (Bottom) and maximal (Top) values. The inhibitor concentration is represented by X, EC50 is the concentration at 50% maximal value, and Hill Slope is the slope factor.

Where [3] appears, read: HEK293 cells stably expressing 17β-HSD13 (footnote b), read-out: EC50, nM Stable.
Setting [4] is: HEK293 cells transiently expressing 17β-HSD13 (footnote a), read-out: EC50, nM Transient.

recombinant 17β-HSD13 protein, sequence (Q7Z5P4 20-300): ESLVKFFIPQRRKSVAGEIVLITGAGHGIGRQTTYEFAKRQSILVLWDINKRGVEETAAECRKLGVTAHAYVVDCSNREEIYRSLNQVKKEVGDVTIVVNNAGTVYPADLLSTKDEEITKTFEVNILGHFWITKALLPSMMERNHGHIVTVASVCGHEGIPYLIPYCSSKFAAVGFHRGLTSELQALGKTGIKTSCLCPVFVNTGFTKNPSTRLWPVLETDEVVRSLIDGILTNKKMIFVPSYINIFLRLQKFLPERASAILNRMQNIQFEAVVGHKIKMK
HEK293 cells expressing 17β-HSD13, sequence (Q7Z5P4 20-300): as above

`C[C@H](c1ccccc1)N1C(=O)N(Cc2nnc(-c3ccc(F)c(O)c3Cl)s2)C2(CC2)C1=O` [Compound I-31, 4-[[5-(2-chloro-4-fluoro-3-hydroxy-phenyl)-1,3,4-thiadiazol-2-yl]methyl]-6-[(1R)-1-phenylethyl]-4,6-diazaspiro[2.4]heptane-5,7-dione]: in experiment [1], the IC50 (commonly the concentration that inhibits the measured activity by half) was 2.68 nM. Moreover, the 50% effective concentration (EC50) (commonly the concentration needed to bring the measured effect to its halfway point) in experiment [2] (setting [3]) was determined as 10.8 nM.
The like results for `O=C1N(Cc2ccccc2)C(=O)C2(CC2)N1Cc1nnc(-c2cc(C(F)(F)F)c(F)c(O)c2F)s1` [Compound I-57, 6-benzyl-4-((5-(2,4-difluoro-3-hydroxy-5-(trifluoromethyl)phenyl)-1,3,4-thiadiazol-2-yl)methyl)-4,6-diazaspiro[2.4]heptane-5,7-dione] were, in that order, 2.46 nM and 52.7 nM.
The like results for `O=C1N([C@@H](c2ccccc2)C(F)(F)F)C(=O)C2(CC2)N1Cc1nnc(-c2ccc(F)c(O)c2F)s1` [Compound I-99A, 4-[[5-(2,4-difluoro-3-hydroxy-phenyl)-1,3,4-thiadiazol-2-yl]methyl]-6-[(1S)-2,2,2-trifluoro-1-phenyl-ethyl]-4,6-diazaspiro[2.4]heptane-5,7-dione] were, in that order, 1.17 ± 0.185 nM and 4.95 ± 0.0122 nM.
Take `CCN1C(=O)N(Cc2nnc(-c3ccc(F)c(O)c3F)s2)C2(CC2)C1=O` [Compound I-7, 4-((5-(2,4-difluoro-3-hydroxyphenyl)-1,3,4-thiadiazol-2-yl)methyl)-6-ethyl-4,6-diazaspiro[2.4]heptane-5,7-dione]: in experiment [1], the IC50 was 16.6 ± 8.74 nM. Further, the EC50 in experiment [2] (setting [4]) was found to be 18.8 nM.
For the molecule `C[C@H](c1ccccc1)N1C(=O)N(Cc2nnc(-c3ccc(F)c(O)c3F)s2)C2(CC2)C1=O` [Compound I-82, (R)-4-((5-(2,4-difluoro-3-hydroxyphenyl)-1,3,4-thiadiazol-2-yl)methyl)-6-(1-phenylethyl)-4,6-diazaspiro[2.4]heptane-5,7-dione], the concentration for half-maximal inhibition (IC50) in experiment [1] was 1.76 ± 0.26 nM. Besides, in experiment [2] (setting [3]), the concentration giving a half-maximal response (EC50) came out at 8.42 nM.
Take `O=C1N(Cc2ccccc2)C(=O)C2(CC2)N1Cc1nnc(-c2ccc(F)c(O)c2F)s1` [Compound I-20, 6-benzyl-4-((5-(2,4-difluoro-3-hydroxyphenyl)-1,3,4-thiadiazol-2-yl)methyl)-4,6-diazaspiro[2.4]heptane-5,7-dione]: the concentration for half-maximal inhibition (IC50) in experiment [1] stood at 2.28 ± 0.933 nM. The EC50 in experiment [2] (setting [3]) worked out at 11.6 nM.
Take `CCN1C(=O)N(Cc2nnc(-c3cc(O)cc(C(F)(F)F)c3)s2)C2(CC2)C1=O` [Compound I-22, 6-ethyl-4-((5-(3-hydroxy-5-(trifluoromethyl)phenyl)-1,3,4-thiadiazol-2-yl)methyl)-4,6-diazaspiro[2.4]heptane-5,7-dione]: the IC50 in experiment [1] is 41 ± 3.9 nM. In addition, the EC50 in experiment [2] (setting [3]) was determined as 144 nM.
The like results for `O=C1N(CC2(C(F)(F)F)CC2)C(=O)C2(CC2)N1Cc1nnc(-c2ccc(F)c(O)c2F)s1` [Compound I-19, 4-((5-(2,4-difluoro-3-hydroxyphenyl)-1,3,4-thiadiazol-2-yl)methyl)-6-((1-(trifluoromethyl)cyclopropyl)methyl)-4,6-diazaspiro[2.4]heptane-5,7-dione] were, in that order, 14.8 ± 2.51 nM and 78.8 nM.
On the same counts, the results for `O=C1N([C@@H](c2ccc(-c3ccc(F)cc3)cc2F)C(F)(F)F)C(=O)C2(CC2)N1Cc1nnc(-c2ccc(F)c(O)c2F)s1` [Compound I-97, (S)-4-((5-(2,4-difluoro-3-hydroxyphenyl)-1,3,4-thiadiazol-2-yl)methyl)-6-(1-(3,4′-difluoro-[1,1′-biphenyl]-4-yl)-2,2,2-trifluoroethyl)-4,6-diazaspiro[2.4]heptane-5,7-dione] are 0.79 nM and 4.66 nM.
The like results for `O=C1N(C(c2ccccc2)C(F)(F)F)C(=O)C2(CC2)N1Cc1nnc(-c2ccc(F)c(O)c2Cl)s1` (stereo in doubt) [Compound I-53, 4-[[5-(2-chloro-4-fluoro-3-hydroxy-phenyl)-1,3,4-thiadiazol-2-yl]methyl]-6-[(S)-(difluoromethyl-fluoranyl)-phenyl-methyl]-4,6-diazaspiro[2.4]heptane-5,7-dione] were, in that order, 5.6 nM and 26.3 nM.
As to “6-cyclopropyl-4-[[5-(2,4-difluoro-3-hydroxy-phenyl)-1,3,4-thiadiazol-2-yl]methyl]-4,6-diazaspiro[2.4]heptane-5,7-dione [Compound I-41]”, in experiment [1], the concentration for half-maximal inhibition (IC50) amounted to 4.15 nM. Besides, the half-maximal effective concentration (EC50) in experiment [2] (setting [3]) is 18.9 nM.
`CCN1C(=O)N(Cc2nnc(-c3ccc(Cl)c(O)c3Cl)s2)C2(CC2)C1=O` [Compound I-9, 4-((5-(2,4-dichloro-3-hydroxyphenyl)-1,3,4-thiadiazol-2-yl)methyl)-6-ethyl-4,6-diazaspiro[2.4]heptane-5,7-dione]: the IC50 in experiment [1] was 150 nM. Moreover, the EC50 in experiment [2] (setting [4]) came to 960 nM.
In the case of `O=C1N([C@@H](c2ccc(-c3ccc(F)cc3)cc2F)C(F)(F)F)C(=O)C2(CC2)N1Cc1nnc(-c2ccc(F)c(O)n2)s1` [Compound I-96, (S)-6-(1-(3,4′-difluoro-[1,1′-biphenyl]-4-yl)-2,2,2-trifluoroethyl)-4-((5-(5-fluoro-6-hydroxypyridin-2-yl)-1,3,4-thiadiazol-2-yl)methyl)-4,6-diazaspiro[2.4]heptane-5,7-dione], the concentration for half-maximal inhibition (IC50) in experiment [1] was found to be 3.11 nM. Also, the 50% effective concentration (EC50) in experiment [2] (setting [3]) came to 121 nM.
For the molecule `CCN1C(=O)N(Cc2nnc(-c3ccc(F)c(O)c3Cl)s2)C2(CC2)C1=O` [Compound I-10, 4-((5-(2-chloro-4-fluoro-3-hydroxyphenyl)-1,3,4-thiadiazol-2-yl)methyl)-6-ethyl-4,6-diazaspiro[2.4]heptane-5,7-dione], the half-inhibitory concentration (IC50) in experiment [1] worked out at 17.9 ± 0.0566 nM. Further, the concentration giving a half-maximal response (EC50) in experiment [2] (setting [3]) worked out at 51 nM; in experiment [2] (setting [4]), 118 nM.
Turning to `CC(C)(C)N1C(=O)N(Cc2nnc(-c3ccc(F)c(O)c3Cl)s2)C2(CC2)C1=O` [Compound I-50, 6-(tert-butyl)-4-((5-(2-chloro-4-fluoro-3-hydroxyphenyl)-1,3,4-thiadiazol-2-yl)methyl)-4,6-diazaspiro[2.4]heptane-5,7-dione], in experiment [1], the IC50 was determined as 4.6 nM. The EC50 in experiment [2] (setting [3]) came out at 35.1 ± 6.03 nM.
For the molecule `O=C1N([C@H](c2ccc(F)cc2F)C(F)(F)F)C(=O)C2(CC2)N1Cc1nnc(-c2ccc(F)c(O)c2F)s1` [Compound I-90A, (R)-4-((5-(2,4-difluoro-3-hydroxyphenyl)-1,3,4-thiadiazol-2-yl)methyl)-6-(1-(2,4-difluorophenyl)-2,2,2-trifluoroethyl)-4,6-diazaspiro[2.4]heptane-5,7-dione], in experiment [1], the half-maximal inhibitory concentration (IC50) amounted to 1.01 ± 0.125 nM. The EC50 in experiment [2] (setting [3]) came out at 8.38 nM.
The like results for `O=C1N(CC(F)(F)F)C(=O)C2(CC2)N1Cc1nnc(-c2ccc(F)c(O)c2F)s1` [Compound I-15, 4-((5-(2,4-difluoro-3-hydroxyphenyl)-1,3,4-thiadiazol-2-yl)methyl)-6-(2,2,2-trifluoroethyl)-4,6-diazaspiro[2.4]heptane-5,7-dione] were, in that order, 8.07 ± 1.77 nM and 40.9 ± 25 nM.
The like results for `Cc1c(-c2nnc(CN3C(=O)N([C@@H](c4ccccc4)C(F)(F)F)C(=O)C34CC4)s2)ccc(F)c1O` [Compound I-91, (S)-4-((5-(4-fluoro-3-hydroxy-2-methylphenyl)-1,3,4-thiadiazol-2-yl)methyl)-6-(2,2,2-trifluoro-1-phenylethyl)-4,6-diazaspiro[2.4]heptane-5,7-dione] were, in that order, 4 nM and 108 nM.

Values taken from patent US20250026745A1 (Bluejay Therapeutics, Inc., priority 2023, published 2025).
